The source of these data is patent publication US10624880B2, “Predicting response to alvocidib by mitochondrial profiling” (Tolero Pharmaceuticals, Inc., priority 2015, dated 2020).

Where only a bound is given, the exact number is not on record here.

For experiment [1], the system named is MCL-1, Bcl-xL, and Bcl-2 in Yugen8 cells. The experiment can be described thus: Immunoblotting of MCL-1, Bcl-xL, Bcl-2 in Yugen8 cells. It is filed as cell-based. The note with it: Yugen8, 280 nM.
Protocol: The time dependence is observed by monitoring the relative expression of MCL-1, Bcl-xL, and Bcl-2 compared β-actin over time. The relative expression of MCL-1, Bcl-xL, and Bcl-2 was measured at 0-96 hour time points after dosing with 280 nM of alvocidib. In one group, after 24 hours of treatment, media was removed and replaced with fresh media containing 280 nM alvocidib (i.e., a wash step; see FIG. 15A). Yugen8 cells were treated with 280 nM alvocidib in vitro for the times indicated in FIG. 15A-B. Following treatment (and wash step as applicable), cells were harvested and prepared using standard immunoblotting techniques for detection of MCL-1, Bcl-xL, and Bcl-2 expression. […] The time dependence is observed by monitoring the relative expression of MCL-1, Bcl-xL, and Bcl-2 compared β-actin over time. The relative expression of MCL-1, Bcl-xL, and Bcl-2 was measured at 0-96 hour time points after dosing with 280 nM of alvocidib. Cells were treated 3 times (three 24 hour periods, broken by two 24 hour breaks) with 280 nM alvocidib in vitro. Following treatment, cells were harvested and prepared using standard immunoblotting techniques for detection of MCL-1, Bcl-xL, and Bcl-2 expression.
A further experiment has as its system MCL-1 mRNA in A549 cells. The experiment can be described thus: RT-PCR of MCL-1 mRNA in A549 cells. It is filed as cell-based, human. The note with it: A549, alvocidib 0-8 μM, 2 hrs, FIG. 8. How it is done:
The A549 cell line is a human adenocarcinoma cell line, which expresses MCL-1. […] A549 cells were treated with alvocidib for 2 hrs in vitro. Following treatment, cells were harvested and prepared using a standard RT-PCR assay for detection of MCL-1 mRNA to probe for changes relative to controls.

Experiment [2] has as its system MCL-1, Bcl-xL, and Bcl-2 in A549 cells. The experiment can be described thus: Immunoblotting of MCL-1, Bcl-xL, Bcl-2 in A549 cells. The experiment is classed as cell-based, human. The note with it: A549, 350 nM. How it is done: The relative expression of MCL-1, Bcl-xL, and Bcl-2 was measured at 0-96 hour time points after dosing with 350 nM of alvocidib. In one group, after 24 hours of treatment, media was removed and replaced with fresh media […] (i.e., a wash step; see FIG. 9A).
A549 cells were treated with 350 nM alvocidib in vitro for the times indicated in FIG. 9A-B. Following treatment (and wash step as applicable), cells were harvested and prepared using standard immunoblotting techniques for detection of MCL-1, Bcl-xL, and Bcl-2 expression.
The relative expression of MCL-1, Bcl-xL, and Bcl-2 was measured at 0-96 hour time points after dosing with 350 nM of alvocidib.
Cells were treated 3 times (three 24 hour periods, broken by two 24 hour breaks) with 350 nM alvocidib in vitro. Following treatment, cells were harvested and prepared using standard immunoblotting techniques for detection of MCL-1, Bcl-xL, and Bcl-2 expression.
On the technique in general: In western blotting, separated proteins are transferred to a membrane and probed.

The subject of the next experiment is MV-4-11 cells. In words: 24 hour EC50 in MV-4-11 cells. The experiment is classed as cell-based. As to conditions: Homo sapiens, MV4-11, read-out: 24 hour EC 50. From the text: (§1) Following the treatment, cells were harvested and prepared using standard immunoblotting techniques for detection of MCL-1.
A further experiment has as its system N-Myc in SK-N-AS cells. The experiment can be described thus: Immunoblotting of N-Myc in SK-N-AS cells. It is filed as cell-based, human. As to conditions: 300 nM, 1-24 hour, FIG. 11. The method, then: The SK-N-AS cell line is a human neuroblastoma cell line that expresses N-Myc, which is a key oncogenic protein. […] The time dependence is observed by monitoring the relative expression of N-Myc compared β-actin over time. The relative expression of N-Myc was measured at 1-24 hour time points after dosing with 300 nM of alvocidib.
Following treatment, cells were harvested and prepared using standard immunoblotting techniques for detection of N-Myc expression.

The subject of the next experiment is MCL-1 in MV-4-11 cells. In words: MCL-1 immunoblotting in the ACM (or FLAM) regimen modeled in vitro. It is filed as cell-based.
Excerpt: as §1

Experiment [3] concerns MCL-1, Bcl-xL, and Bcl-2 in Panc-1 cells. The experiment can be described thus: Immunoblotting of MCL-1, Bcl-xL, Bcl-2 in Panc-1 cells. It is filed as cell-based, human. As to conditions: Panc-1, 730 nM.
Protocol: The time dependence is observed by monitoring the relative expression of MCL-1, Bcl-xL, and Bcl-2 compared β-actin over time. The relative expression of MCL-1, Bcl-xL, and Bcl-2 was measured at 0-96 hour time points after dosing with 730 nM of alvocidib. In one group, after 24 hours of treatment, media was removed and replaced with fresh media containing 730 nM alvocidib (i.e., a wash step; see FIG. 13A). Panc-1 cells were treated with 730 nM alvocidib in vitro for the times indicated in FIG. 13A-B. Following treatment (and wash step as applicable), cells were harvested and prepared using standard immunoblotting techniques for detection of MCL-1, Bcl-xL, and Bcl-2 expression. […] The time dependence is observed by monitoring the relative expression of MCL-1, Bcl-xL, and Bcl-2 compared β-actin over time. The relative expression of MCL-1, Bcl-xL, and Bcl-2 was measured at 0-96 hour time points after dosing with 730 nM of alvocidib. Cells were treated 3 times (three 24 hour periods, broken by two 24 hour breaks) with 730 nM alvocidib in vitro. Following treatment, cells were harvested and prepared using standard immunoblotting techniques for detection of MCL-1, Bcl-xL, and Bcl-2 expression.
Experiment [4] deals with MCL-1, Bcl-xL, and Bcl-2 in MV-4-11 cells. The experiment can be described thus: Immunoblotting of MCL-1, Bcl-xL, Bcl-2 in MV-4-11 cells. The experiment is classed as cell-based. How it is done: The dose dependence is observed by monitoring the relative expression of MCL-1 compared to β-actin when cells are dosed with alvocidib at concentrations of 0-8 μM. MV4-11 cells were treated with alvocidib for 2 hrs in vitro. Following treatment, cells were harvested and prepared using standard immunoblotting techniques for detection of MCL-1 to probe for changes relative to β-actin.
The time dependence is observed by monitoring the relative expression of MCL-1, Bcl-xL, and Bcl-2 compared β-actin over time. The relative expression of MCL-1, Bcl-xL, and Bcl-2 was measured at 1-96 hour time points after dosing with 80 nM of alvocidib.
Following treatment, cells were harvested and prepared using standard immunoblotting techniques for detection of MCL-1, Bcl-xL, and Bcl-2 expression.

The subject of experiment [5] is MCL-1 mRNA in MV-4-11 cells. In words: RT-PCR of MCL-1 mRNA in MV-4-11 cells. The experiment is classed as cell-based. The method, then:
An AML cell line, MV-4-11, expresses MCL-1. MCL-1 is a key anti-apoptotic protein in MV-4-11 cells. Alvocidib, a CDK9 inhibitor, lowers the expression of MCL-1 mRNA, which is already well documented in the literature. […] MV-4-11 cells were treated with alvocidib for 2 hrs in vitro. Following treatment, cells were harvested and prepared using a standard real time PCR (RT-PCR) assay for detection of MCL-1 mRNA to probe for changes relative to controls.
The relative expression of MCL-1 mRNA was measured at 0.5-16 hour time points after dosing with 100 nM of alvocidib.
Following treatment, cells were harvested and prepared using standard RT-PCR assay for detection of MCL-1 mRNA expression.

In the case of `CN1CC[C@H](c2c(O)cc(O)c3c(=O)cc(-c4ccccc4Cl)oc23)[C@H](O)C1` [alvocidib], the “relative expression of MCL-1, Bcl-xL, and Bcl-2 compared β-actin over time” value in experiment [1] (0-96 hour, with and without wash step, FIG. 15A-B) was “down-regulates MCL-1 in Yugen8 cells in a time dependent manner”; in experiment [1] (repeat dosing regimen, FIG. 16), “down-regulates MCL-1 in Yugen8 in a time-dependent manner”; in experiment [2] (0-96 hour, with and without wash step, FIG. 9A-B), “down-regulates MCL-1 in A549 in a time-dependent manner”; in experiment [2] (repeat dosing (three 24 hour periods, two 24 hour breaks), FIG. 12), “down-regulates MCL-1 in A549 cells in a time-dependent manner”; in experiment [3] (0-96 hour, with and without wash step, FIG. 13A-B), “down-regulates MCL-1 in Panc-1 cells in a time dependent manner”; in [3] (repeat dosing regimen, FIG. 14) it was “down-regulates MCL-1 in Panc-1 cells in a time-dependent manner”. In experiment [4] (MV-4-11, 80 nM, 1-96 hour, FIG. 10B), the “relative expression of MCL-1, Bcl-xL, and Bcl-2 compared β-actin over time” value is recorded as “down-regulates MCL-1 in MV-4-11 in a time-dependent manner”. In addition, the “relative expression of MCL-1 mRNA compared to controls” value is “down-regulates MCL-1 mRNA in A549 cells in a dose dependent manner” with MCL-1 mRNA in A549 cells and “down-regulates MCL-1 mRNA in MV-4-11 cells in a dose dependent manner” in [5] (MV-4-11, alvocidib 0-8 μM, 2 hrs, FIG. 7A). In the experiment on MV-4-11 cells, the EC50 was 80 nM. Further, in the experiment on N-Myc in SK-N-AS cells, the “relative expression of N-Myc compared β-actin over time” value was “down-regulates N-Myc in SK-N-AS cells in a time-dependent manner”. The “relative expression of MCL-1 compared to β-actin” value with MCL-1 in MV-4-11 cells (MV-4-11, each treatment dosed at its 24 hour EC50, FIG. 17B) was “lower the expression of MCL-1”; in experiment [4] (MV-4-11, alvocidib 0-8 μM, 2 hrs, FIG. 10A), “down-regulates MCL-1 in MV-4-11 cells in a dose dependent manner”. Further, the “expression of MCL-1 over the course of the ACM (or FLAM) regimen” value with MCL-1 in MV-4-11 cells (modeled in vitro, MV-4-11, FIG. 17A) is on record as “represses super enhancer complex regulated genes, including expression of MCL-1”. Besides, the “time post-treatment at which MCL-1 mRNA expression was reduced” value in experiment [5] (MV-4-11, 100 nM) is no more than 30 min. The “relative expression of MCL-1 mRNA compared controls over time” value in experiment [5] (MV-4-11, 100 nM, 0.5-16 hour, FIG. 7B) was “down-regulates MCL-1 mRNA in MV-4-11 in a time-dependent manner”.

For the molecule `CC(=O)c1c(C)c2cnc(Nc3ccc(N4CCNCC4)cn3)nc2n(C2CCCC2)c1=O` [palbociclib], the EC50 in the experiment on MV-4-11 cells was determined as 1000 nM.
